US6323230A, “Use of nitrogen heterocyclic aromatic derivatives in the topical treatment of the epithelial tissues diseases” (Geange Ltd., priority 1997, dated 2001)

How the values were obtained:
[1] = Percutaneous absorption / systemically bioavailable dose from cream; type: in vivo; details: cream 0.05-0.1%
[2] = system: ulcerous cholitis (colon); experiment: Animal models of ulcerous cholitis; type: in vivo, Wistar rats; details: oral, daily, 1 mg/kg, in sesame oil 2 mg/mL
Description: Dealing with the activity of the compounds object of the present invention, on the inflammatory diseases of the low intestine, some compounds, namely V, VI, X and XI, were tested in animal models of ulcerous cholitis (Wallace J. L. et al., Eur. J. Pharmacol. 257, 249 (1994); Renter B. K. et al. J. Clin. Invest. 98, 2076-2085 (1996).
In particular, compound VI, when administered daily by oral route to Wistar rats, dissolved in sesame oil at the concentration of 2 mg/mL , at the dose of 1 mg/kg, did show a good activity in favouring colon ulcers repair, in re-establishing the normal thickness of the intestinal wall and in decreasing the granulocytes infiltration proper of an inflammatory condition.

CCc1ccccc1-c1n[nH]c(-c2cccc(OC)c2)n1 [Compound XIII]
maximum systemically bioavailable dose ([1]; about 50 g, whole body surface, 25-50 mg): 0.05 to 0.1 mg/kg | Fa ([1]; in vivo, topical or ocular, of the applied dose): ~10%

COc1cccc(-c2nc(-c3ccccc3CO)n[nH]2)c1 [VI]
decreasing the granulocytes infiltration [2]: good activity | favouring colon ulcers repair [2]: good activity | re-establishing the normal thickness of the intestinal wall [2]: good activity
